System: Tcf/Lef reporter activity (endogenous β-catenin) in 293T cells
Assay: Tcf/Lef reporter assay (pTOPFLASH/pFOPFLASH) in adriamycin-treated 293T cells
Format: cell-based
Conditions: 293T cells treated with 1 µg/ml adriamycin 8 hours after transfection for 16 hours; FIG. 6E
Text: FIGS. 6A, 6B, 6C, and 6E illustrate that Siah-1 mediates p53-induced degradation of β-catenin. […] 293T cells were transiently co-transfected with an internal control (pEGFP) and the indicated plasmids. The amount of DNA in each transfection was kept constant by the addition of an appropriate amount of empty expression vector. Whole cell lysates were subjected to Western analysis. Blots were probed with mouse monoclonal antibodies to the Myc epitope tag (upper panel) and GFP (lower panel). FIG. 6C illustrate the pulse-chase analysis of ectopically expressed Myc-tagged β-catenin. […] Immunoprecipitated Myc-β-catenin was subjected to SDS-PAGE and dried gels were analyzed with a PhosphorImager. […]
Cell culture, transfection, reporter assay, co-immunoprecipitation and immmunoblotting. […] Luciferase and β-galactosidase activity was measured 24 hours after transfecton. Tcf/Lef reporter activity was determined as described. […] The whole cell extract (WCE) was immunoprecipitated using a mouse monoclonal antibody specific for the amino-terminus of pAPC (Ab-5, Oncogene Research) or a control mouse IgG, and associated Myc-Siah-1 protein was detected by immunoblotting using an anti-Myc monoclonal antibody (9E10). The pAPC in WCE (20 µg) and immunoprecipitates was detected using an anti-APC mouse monoclonal antibody (Ab-1, Oncogene Research). […]

Q: For COc1cccc2c1C(=O)c1c(O)c3c(c(O)c1C2=O)C[C@@](O)(C(=O)CO)C[C@@H]3O[C@H]1C[C@H](N)[C@H](O)[C@H](C)O1 [adriamycin], which “Tcf/Lef reporter activity (TOP/FOP)” value is on record?
A: decreased Tcf/Lef reporter activity

Reference: patent US20080050755A1, “Method for screening for chemotherapeutic treatments for cancer” (priority 2000, published 2008)
